This note sets out measurements from patent US10344026B2, “Compositions and methods of targeting mutant K-ras” (NANTBIO, INC., priority 2017, dated 2019).

The structures appear in SMILES notation.

Assay type in all cases: cell-based
In experiment [1] the test system is HCC827 (K-Ras wild type cell line). Briefly: Viability assay (CellTiterBlue, 72 hr) HCC827. The conditions noted are these: Homo sapiens, GI50, CellTiterBlue, HCC827 K-Ras wild-type. The method, boiled down:
(§1)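 Each line was plated at 1000 cells per well and incubated for 72 hr with compound after an 18 hr settling period. CellTiterBlue fluorescence measured the result, and GI50 was fitted relative to DMSO and tamoxifen controls.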

Experiment [2] concerns phospho-ERK in HCC827 (Wild-type). As to the kind of experiment: In-Cell Western phospho-ERK, HCC827. The conditions noted are these: Homo sapiens, 1 h; HCC827, one hour treatment; read-out: In-Cell Western HCC827 (Wild-type) Erk (P). The method, boiled down: (§2)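 Cells were seeded at 3000 cells/well, incubated 18 hr at 37° C, then treated with compound for 1 hr (0.5% DMSO final). After fixation, permeabilization and blocking, phospho-Akt or phospho-ERK antibodies were applied overnight at 4° C, followed by secondary antibody; cellular fluorescence was imaged and EC50 calculated.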

In experiment [3] the test system is phospho-ERK in A375 (Wild-type). Briefly: In-Cell Western phospho-ERK, A375. The conditions noted are these: Homo sapiens, A-375, 1 h; A375, one hour treatment; read-out: In-Cell Western A375 (Wild-type) Erk (P). The procedure, abridged: as §2
Experiment [4] relates to U87-MG (K-Ras wild type cell line). Briefly: Viability assay (CellTiterBlue, 72 hr) U87-MG. The conditions noted are these: Homo sapiens, U-87 MG, GI50, CellTiterBlue, U87-MG K-Ras wild-type. The procedure, abridged:
as §1

Another experiment relates to Panc10.05-G12D. Briefly: Viability assay (CellTiterBlue, 72 hr) Panc10.05. The conditions noted are these: Homo sapiens, Panc1005, GI50, CellTiterBlue, Panc10.05 K-Ras G12D, read-out: 72 hr Cell Viability Panc10.05 (G12D). The method, boiled down:
as §1
Background: Alamar Blue is a resazurin reagent that responds to reducing activity.

Experiment [5] has as its system Ishikawa (K-Ras wild type cell line). Briefly: Viability assay (CellTiterBlue, 72 hr) Ishikawa. To be noted: Homo sapiens, GI50, CellTiterBlue, Ishikawa K-Ras wild-type. The method, boiled down: as §1
In experiment [6] the test system is A375 (K-Ras wild type cell line). Briefly: Viability assay (CellTiterBlue, 72 hr) A375. To be noted: Homo sapiens, A-375, GI50, CellTiterBlue. The method, boiled down:
as §1

Experiment [7] deals with phospho-Akt in A375 (Wild-type). Briefly: In-Cell Western phospho-Akt, A375. To be noted: Homo sapiens, A-375, 1 h; A375, one hour treatment; read-out: In-Cell Western A375 (Wild-type) Akt (P). The method, boiled down:
as §2

Experiment [8] deals with phospho-Akt in Panc10.05 (G12D). As to the kind of experiment: In-Cell Western phospho-Akt, Panc10.05. The conditions noted are these: Homo sapiens, Panc1005, 1 h; Panc10.05, one hour treatment; read-out: In-Cell Western Panc10.05 (G12D) Akt (P). The method, boiled down:
as §2

A further experiment concerns the target T1, K-Ras G12D (Homo sapiens, UniProt P01116, G12D).
T1 construct: expressed in transfected cells; host or cells: 293H cells
As to the kind of experiment: G-LISA Ras activation, 293H cells transfected with G12D mutant. To be noted: compound 1 hour. The procedure, abridged: (§3)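 Mutant or wild-type Ras was expressed transiently in 293H cells, which were incubated 1 hour with compound across 3.125-25 μM. G-LISA on cold lysates gave Ras activation, wild-type cells having first been EGF-stimulated (100 ng/ml, 2 min).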

Experiment [9] concerns phospho-ERK in Panc1 (G12D). Briefly: In-Cell Western phospho-ERK, Panc1. The conditions noted are these: Homo sapiens, PANC-1, 1 h; Panc1, one hour treatment; read-out: In-Cell Western Panc1 (G12D) Erk (P). The procedure, abridged: as §2
The next experiment concerns the target T2, wild type K-Ras (Homo sapiens, UniProt P01116).
T2 construct: expressed in transfected cells; host or cells: 293H cells
Briefly: G-LISA Ras activation, 293H cells transfected with Ras wild-type, EGF stimulated. The conditions noted are these: compound 1 hour, then 100 ng/ml EGF 2 minutes. The procedure, abridged: as §3

Experiment [10] concerns phospho-Akt in Panc1 (G12D). Briefly: In-Cell Western phospho-Akt, Panc1. The conditions noted are these: Homo sapiens, PANC-1, 1 h; Panc1, one hour treatment; read-out: In-Cell Western Panc1 (G12D) Akt (P). The method, boiled down: as §2
Experiment [11] concerns phospho-ERK in Panc10.05 (G12D). As to the kind of experiment: In-Cell Western phospho-ERK, Panc10.05. To be noted: Homo sapiens, Panc1005, 1 h; Panc10.05, one hour treatment; read-out: In-Cell Western Panc10.05 (G12D) Erk (P). The procedure, abridged: as §2
The test system of another experiment is HCT116-G31D. As to the kind of experiment: Viability assay (CellTiterBlue, 72 hr) HCT116. The conditions noted are these: Homo sapiens, HCT-116, GI50, CellTiterBlue, HCT116 K-Ras G13D, read-out: 72 hr Cell Viability HCT116 (G13D). The procedure, abridged:
as §1

The next experiment has as its system Panc1-G12D. Briefly: Viability assay (CellTiterBlue, 72 hr) Panc1. The conditions noted are these: Homo sapiens, PANC-1, GI50, CellTiterBlue, Panc1 K-Ras G12D, read-out: 72 hr Cell Viability Panc1 (G12D). The procedure, abridged: as §1

T2 sequence (P01116 whole entry): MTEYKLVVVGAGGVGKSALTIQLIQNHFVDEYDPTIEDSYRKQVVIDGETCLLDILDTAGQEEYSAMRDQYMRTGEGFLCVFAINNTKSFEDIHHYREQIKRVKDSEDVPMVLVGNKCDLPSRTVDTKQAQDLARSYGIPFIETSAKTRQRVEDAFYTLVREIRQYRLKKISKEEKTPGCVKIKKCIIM
T1 sequence (P01116 whole entry G12D): as the sequence (P01116 whole entry) above, with G12D counted along it

In the case of `COC(=O)CCN1C(=O)CCc2cc(-c3csc(NC(=O)c4oc(C)nc4C)n3)ccc21` [Compound 99, methyl 3-(6-(2-(2,4-dimethyloxazole-5-carboxamido)thiazol-4-yl)-2-oxo-3,4-dihydroquinoiolin-1 (2H)-yl)propanoate], the IC50 is over 25 µM in [1]; over 25 µM in experiment [4]; 6 µM in the experiment on Panc10.05-G12D; 4 µM in experiment [5]; 6 µM in experiment [6]; 6.7 µM against K-Ras G12D. The IC50 is 10.2 µM on wild type K-Ras, over 25 µM with HCT116-G31D and 6 µM in the experiment with Panc1-G12D. Besides, the EC50 was 5 µM in [2]; over 25 µM in [3]; over 25 µM in experiment [7]; 10 µM in experiment [8]; 14 µM in [9]; over 25 µM in experiment [10]. Also, the EC50 in [11] stood at 5 µM.
`Cc1nc(C(C)C)oc1C(=O)Nc1nc(-c2ccc3c(c2)CCC(=O)N3Cc2cccnc2)cs1` [Compound 91]: the IC50 in [1] was 3 µM; in experiment [4], over 25 µM; with Panc10.05-G12D, 2 µM; in experiment [5] it was over 25 µM; in experiment [6] it was over 25 µM; at K-Ras G12D, 8.4 µM. In addition, the values for the IC50 against wild type K-Ras, in the experiment with HCT116-G31D and in the experiment on Panc1-G12D were 11.7 µM, 1.5 µM and 5 µM, respectively. Besides, the EC50 is 11 µM in experiment [2]; 5 µM in [3]; 5 µM in experiment [7]; 12 µM in [8]; 8 µM in experiment [9]; 4 µM in experiment [10]. In experiment [11], the EC50 came out at 1.4 µM.
In the case of `CCc1nc(C)c(C(=O)Nc2nc(-c3ccc4c(c3)CCC(=O)N4Cc3cccnc3)cs2)s1` [Compound 106, 2-ethyl-4-methyl-N-(4-(2-oxo-1-(pyridin-3-ylmethyl)-1,2,3,4-tetrahydroquinoinolin-6-yl)thiazol-2-yl)thiazole-5-carboxamide], the IC50 was over 25 µM in experiment [1]; over 25 µM in experiment [4]; 3 µM in the experiment with Panc10.05-G12D; over 25 µM in [5]; 22 µM in experiment [6]; 4.4 µM on K-Ras G12D. In addition, the IC50 stood at 9.6 µM on wild type K-Ras, 6 µM in the experiment with HCT116-G31D and 12 µM with Panc1-G12D. In addition, the EC50 was 7 µM in experiment [2]; 20 µM in [3]; over 25 µM in experiment [7]; over 25 µM in experiment [8]; 5 µM in experiment [9]; 25 µM in experiment [10]. In experiment [11], the EC50 came to 10 µM.
Consider `Cn1nc(C(C)(C)C)cc1C(=O)Nc1nc(-c2ccc3c(c2)CCC(=O)N3)cs1` [Compound 43, 3-(tert-butyl)-1-methyl-N-(4-(2-oxo-1,2,3,4-tetrahydroquinolin-6-yl)thiazol-2-yl)-1H-pyrazole-5-carboxamide], for which the IC50 (in [1]; in [4]; with Panc10.05-G12D; in experiment [5]; in [6]; on K-Ras G12D) was over 25 µM in each case. Further, the IC50 against wild type K-Ras, in the experiment with HCT116-G31D and in the experiment with Panc1-G12D was over 25 µM in each case. Also, the EC50 in experiment [2] is 19 µM; in experiment [3], over 25 µM; in [7], over 25 µM; in experiment [8], over 25 µM; in experiment [9], over 25 µM; in [10] it was over 25 µM. In addition, the EC50 in experiment [11] is over 25 µM.
`COCCN1C(=O)CCc2cc(-c3csc(NC(=O)c4oc(C)nc4C)n3)ccc21` [Compound 95, N-(4-(1-(2-methoxyethyl)-2-oxo-1,2,3,4-tetrahydroquinolin-6-yl)thiazol-2-yl)-2,4-dimethyloxazole-5-carboxamide]: the IC50 in experiment [1] is 5 µM; in experiment [4] it was over 25 µM; with Panc10.05-G12D, 4 µM; in experiment [5], over 25 µM; in experiment [6] it was over 25 µM; at K-Ras G12D, 5.1 µM. Besides, the IC50 was 15.4 µM on wild type K-Ras, 4 µM in the experiment with HCT116-G31D and 7 µM in the experiment on Panc1-G12D. The EC50 in experiment [2] is 10 µM; in experiment [3], over 25 µM; in experiment [7], over 25 µM; in experiment [8], 14 µM; in experiment [9] it was 10 µM; in experiment [10] it was 6 µM. Also, the EC50 in experiment [11] was 2 µM.
Take `Cc1nc(C2CCC2)oc1C(=O)Nc1nc(-c2ccc3c(c2)CCC(=O)N3Cc2cccnc2)cs1` [Compound 92, 2-cyclobutyl-4-methyl-N-(4-(2-oxo-1-(pyridin-3-ylmethyl)-1,2,3,4-tetrahydroquinolin-6-yl)thiazol-2-yl)oxazole-5-carboxamide]: the IC50 was 4 µM in [1]; over 25 µM in [4]; 3 µM in the experiment with Panc10.05-G12D; over 25 µM in experiment [5]; over 25 µM in experiment [6]; 8.5 µM at K-Ras G12D. In addition, the values for the IC50 on wild type K-Ras, in the experiment with HCT116-G31D and with Panc1-G12D were 15.2 µM, 1.5 µM and 6 µM, respectively. Besides, the EC50 in [2] is 15 µM; in [3], over 25 µM; in experiment [7] it was over 25 µM; in experiment [8], 17 µM; in [9] it was 6 µM; in experiment [11], 2 µM.
Turning to `Cc1nn(C)c(C)c1C(=O)Nc1nc(-c2ccc3c(c2)CCC(=O)N3Cc2cccnc2)cs1` [Compound 113, 1,3,5-trimethyl-N-(4-(2-oxo-1-(pyridin-3-ylmethyl)-1,2,3,4-tetrahydroquinolin-6-yl)thiazol-2-yl)-1H-pyrazole-4-carboxamide], the IC50 in experiment [1] was over 25 µM; in experiment [4], over 25 µM; in the experiment on Panc10.05-G12D, 2 µM; in experiment [5], over 25 µM; in experiment [6], 14 µM; on K-Ras G12D, 6.3 µM. For the same compound, the IC50 against wild type K-Ras came out at 9.6 µM; in the experiment with HCT116-G31D it was 11 µM; in the experiment on Panc1-G12D it was 19 µM. Besides, the EC50 was 6 µM in [2]; 13 µM in experiment [3]; over 25 µM in experiment [7]; over 25 µM in [8]; 2 µM in experiment [9]; over 25 µM in experiment [10]. The EC50 in [11] is 7 µM.
Consider `COc1cccc(CN2C(=O)CCc3cc(-c4csc(NC(=O)c5oc(C)nc5C)n4)ccc32)c1OC` [Compound 93, N-(4-(1-(2,3-dimethoxybenzyl)-2-oxo-1,2,3,4-tetrahydroquinolin-6-yl)thiazol-2-yl)-2,4-dimethyloxazole-5-carboxamide], for which the IC50 in [1] is over 25 µM; in [4], over 25 µM; in the experiment with Panc10.05-G12D it was 5 µM; in [5], over 25 µM; in experiment [6], over 25 µM; on K-Ras G12D it was 8.6 µM. For the same compound, the IC50 came to 10 µM on wild type K-Ras, 4 µM with HCT116-G31D and 9 µM with Panc1-G12D. Besides, the EC50 was over 25 µM in experiment [2]; over 25 µM in experiment [3]; over 25 µM in experiment [7]; 15 µM in [8]; 8 µM in [9]; 6 µM in [10]. In addition, the EC50 in experiment [11] amounted to 1.2 µM.
